Among the data in publication PMC3479967 (Evidence-based Complementary and Alternative Medicine : eCAM, 2012) are IC50 values, retold here.

In one assay the target is T1, UGT2B15 (Homo sapiens, UniProt P54855).
T1 sequence (P54855 24-530): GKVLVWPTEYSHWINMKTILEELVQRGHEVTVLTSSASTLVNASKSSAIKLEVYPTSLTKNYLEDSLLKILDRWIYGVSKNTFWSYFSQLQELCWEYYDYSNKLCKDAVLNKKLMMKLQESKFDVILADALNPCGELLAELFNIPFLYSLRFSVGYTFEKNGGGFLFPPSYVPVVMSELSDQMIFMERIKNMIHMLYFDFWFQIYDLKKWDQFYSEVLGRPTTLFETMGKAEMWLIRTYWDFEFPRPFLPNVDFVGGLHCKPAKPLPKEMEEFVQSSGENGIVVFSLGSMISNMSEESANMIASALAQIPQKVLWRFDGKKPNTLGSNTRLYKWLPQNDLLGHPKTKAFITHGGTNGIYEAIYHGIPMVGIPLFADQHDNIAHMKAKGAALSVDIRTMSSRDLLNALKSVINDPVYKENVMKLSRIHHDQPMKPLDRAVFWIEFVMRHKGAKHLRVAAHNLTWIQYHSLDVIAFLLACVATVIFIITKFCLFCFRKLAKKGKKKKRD
The assay can be described thus: Inhibition of recombinant UGT2B15 activity (4-MU glucuronidation). On the procedure:
(§1) A panel of recombinant human UGT supersomes (UGT1A1, UGT1A3, UGT1A4, UGT1A6, UGT1A7, UGT1A8, UGT1A9, UGT1A10, UGT2B4, UGT2B7, UGT2B15, and UGT2B17) expressed in baculovirus-infected insect cells were purchased from BD Gentest Corp. (Woburn, MA, USA).
(§2) 4-MU, a nonselective substrate of UGTs, was used as probe substrate for all UGTs except UGT1A4. Incubations with each individual enzyme were conducted using conditions previously described. There was a 5 min preincubation step at 37°C before the reaction was started by addition of UDPGA. The incubation mixtures were then centrifuged at 20,500 ×g for 15 min to obtain the supernatant. Aliquots (20 μL) were then analyzed by HPLC. The HPLC system (SHIMADZU, Kyoto, Japan) consisted of an SCL-10A system controller, two LC-10AT pumps, a SIL-10A auto injector, and a SPD-10AVP UV detector. Chromatographic separation was achieved using a Kromasil ODS column (4.6 × 150 mm I.D., 5 μm particle size) at a flow rate of 1 mL/min and UV detection at 316 nm. The mobile phase consisted of 10 mM KH2PO4, pH 2.7 (A) and acetonitrile (B). The following gradient was applied at a flow rate of 1 mL/min: 0–4 min 80% A and 20% B, 4.1–8 min 50% A and 50% B, 8.1–12 min, 30% A and 70% B. All experiments were performed in two independent experiments in duplicate.
(§3) A typical incubation mixture contained recombinant human UGTs, 5 mM MgCl2, 5 mM UDPGA, 50 μg/mg protein alamethicin, 50 mM Tris-HCl buffer (pH 7.4), and various probe substrates of UGTs in the absence or presence of different concentrations of inhibitors. […] The final concentration of DMSO in the incubation system was 1% (v/v). […]
(§4) Inhibition data from experiments were graphically represented by Dixon plots. K i values were calculated by nonlinear regression using the equations for competitive inhibition (1), noncompetitive inhibition (2), or mixed inhibition (3), [22] […] The type of inhibition was determined from the enzyme inhibition models. Goodness of fit to kinetic and inhibition models was assessed from the F statistic, r ^2 values, parameter standard error estimates, and 95% confidence intervals. […]

The target of the next assay is T2, UGT1A10 (Homo sapiens, UniProt Q9HAW8).
T2 sequence (Q9HAW8 26-530): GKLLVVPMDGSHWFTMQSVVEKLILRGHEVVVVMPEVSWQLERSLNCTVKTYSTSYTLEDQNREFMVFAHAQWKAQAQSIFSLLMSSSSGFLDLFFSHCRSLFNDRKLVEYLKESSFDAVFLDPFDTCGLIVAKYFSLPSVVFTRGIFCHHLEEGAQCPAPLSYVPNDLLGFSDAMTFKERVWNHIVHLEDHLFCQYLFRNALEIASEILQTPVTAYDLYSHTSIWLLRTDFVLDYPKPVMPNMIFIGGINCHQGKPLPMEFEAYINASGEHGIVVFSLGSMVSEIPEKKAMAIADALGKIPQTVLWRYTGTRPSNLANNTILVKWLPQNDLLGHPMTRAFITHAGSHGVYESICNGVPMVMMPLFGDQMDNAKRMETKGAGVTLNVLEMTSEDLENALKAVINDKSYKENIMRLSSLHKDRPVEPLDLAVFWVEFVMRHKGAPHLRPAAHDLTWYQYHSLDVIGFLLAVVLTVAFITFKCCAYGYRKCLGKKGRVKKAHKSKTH
The assay can be described thus: Inhibition of recombinant UGT1A10 activity (4-MU glucuronidation). On the procedure: as §1, §2, §3, §4

Structures are written as SMILES. pIC50: −log10 of the molar value.

`COc1ccc(-c2oc3c(CC=C(C)C)c(O[C@@H]4O[C@H](CO)[C@@H](O)[C@H](O)[C@H]4O)cc(O)c3c(=O)c2O[C@@H]2O[C@@H](C)[C@H](O)[C@@H](O)[C@H]2O)cc1` [Icariin]: the pIC50 on UGT2B15 and at UGT1A10 was below 4.00 each time.
Turning to `COc1ccc(-c2oc3c(CC=C(C)C)c(O[C@@H]4O[C@H](CO)[C@@H](O)[C@H](O)[C@H]4O)cc(O)c3c(=O)c2O)cc1` [Icariside I], the pIC50 at UGT2B15 and on UGT1A10 was below 4.00 in each case.
As for `COc1ccc(-c2oc3c(CC=C(C)C)c(O)cc(O)c3c(=O)c2O)cc1` [Icaritin], the pIC50 on UGT2B15 and at UGT1A10 was below 4.00 each time.
